According to patent US10519147B2 (Merck Sharp & Dohme Corp., priority 2015, dated 2019):

target: T1, human Nav1.7 (Homo sapiens, UniProt Q15858); assay: IonWorks Quattro automated patch-clamp, inactivated state block of Nav1.7; assay type: cell-based; conditions: channels stably expressed in HEK 293 cells; double-pulse protocol, inactivated state block; read-out: potency for the Nav 1.7 sodium ion channel (IC50, as measured by IonWorks)
T1 construct: expressed in transfected cells; host or cells: HEK 293
T1 sequence (Q15858 whole entry): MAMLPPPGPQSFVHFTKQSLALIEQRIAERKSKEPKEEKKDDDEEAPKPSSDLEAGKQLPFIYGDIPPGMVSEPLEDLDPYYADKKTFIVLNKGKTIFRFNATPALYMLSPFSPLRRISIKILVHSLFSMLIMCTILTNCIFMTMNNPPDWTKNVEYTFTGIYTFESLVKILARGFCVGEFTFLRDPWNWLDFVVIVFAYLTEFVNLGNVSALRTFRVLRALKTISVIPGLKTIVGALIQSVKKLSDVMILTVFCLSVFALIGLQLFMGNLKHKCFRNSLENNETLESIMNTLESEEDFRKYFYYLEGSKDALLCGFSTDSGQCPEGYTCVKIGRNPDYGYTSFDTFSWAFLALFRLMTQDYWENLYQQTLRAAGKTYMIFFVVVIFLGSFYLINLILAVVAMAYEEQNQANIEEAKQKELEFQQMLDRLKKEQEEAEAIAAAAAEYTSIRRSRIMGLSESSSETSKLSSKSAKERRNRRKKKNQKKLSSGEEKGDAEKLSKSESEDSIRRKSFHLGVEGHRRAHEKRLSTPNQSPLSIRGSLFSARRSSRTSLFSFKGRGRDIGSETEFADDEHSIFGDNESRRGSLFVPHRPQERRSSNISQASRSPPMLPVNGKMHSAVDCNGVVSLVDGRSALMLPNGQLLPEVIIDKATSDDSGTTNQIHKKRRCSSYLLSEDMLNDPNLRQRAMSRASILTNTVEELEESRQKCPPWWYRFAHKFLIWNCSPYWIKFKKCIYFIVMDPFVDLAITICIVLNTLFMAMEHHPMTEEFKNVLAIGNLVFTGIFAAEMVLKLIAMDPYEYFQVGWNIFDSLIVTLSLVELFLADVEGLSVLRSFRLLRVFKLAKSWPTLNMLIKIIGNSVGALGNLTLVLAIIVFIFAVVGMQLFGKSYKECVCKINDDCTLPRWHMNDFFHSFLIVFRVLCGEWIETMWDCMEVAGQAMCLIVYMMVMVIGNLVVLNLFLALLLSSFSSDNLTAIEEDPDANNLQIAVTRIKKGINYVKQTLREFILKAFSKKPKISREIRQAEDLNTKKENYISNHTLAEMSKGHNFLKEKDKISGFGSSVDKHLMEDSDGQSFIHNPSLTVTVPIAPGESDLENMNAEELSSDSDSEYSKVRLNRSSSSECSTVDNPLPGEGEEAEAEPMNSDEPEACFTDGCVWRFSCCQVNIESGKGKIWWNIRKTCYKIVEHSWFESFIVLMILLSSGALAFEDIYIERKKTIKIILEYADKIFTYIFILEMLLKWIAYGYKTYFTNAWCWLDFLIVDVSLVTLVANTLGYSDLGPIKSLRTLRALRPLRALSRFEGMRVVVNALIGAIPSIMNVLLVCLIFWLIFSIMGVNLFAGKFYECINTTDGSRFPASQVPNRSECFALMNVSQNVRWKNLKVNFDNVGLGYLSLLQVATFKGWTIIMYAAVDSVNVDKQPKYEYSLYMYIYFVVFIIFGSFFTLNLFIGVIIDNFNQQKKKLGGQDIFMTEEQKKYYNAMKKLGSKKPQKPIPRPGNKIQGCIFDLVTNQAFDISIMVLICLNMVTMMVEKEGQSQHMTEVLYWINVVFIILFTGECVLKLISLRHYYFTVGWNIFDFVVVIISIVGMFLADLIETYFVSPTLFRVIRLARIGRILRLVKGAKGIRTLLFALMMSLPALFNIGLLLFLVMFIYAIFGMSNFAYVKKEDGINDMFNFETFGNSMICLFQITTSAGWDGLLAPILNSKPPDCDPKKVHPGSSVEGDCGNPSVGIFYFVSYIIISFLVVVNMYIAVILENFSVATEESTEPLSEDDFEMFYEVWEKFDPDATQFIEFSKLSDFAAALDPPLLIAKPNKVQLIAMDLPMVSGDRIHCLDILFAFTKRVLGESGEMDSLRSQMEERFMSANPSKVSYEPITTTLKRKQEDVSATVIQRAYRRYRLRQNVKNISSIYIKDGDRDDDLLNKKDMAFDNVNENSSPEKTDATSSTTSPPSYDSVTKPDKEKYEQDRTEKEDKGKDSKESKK
Protocol: Compounds were tested on human Nav1.7 and Nav1.5 channels stably expressed in HEK 293 cells. […] Cells were sealed on a planar substrate using the Population Patch […] (PPC) technology. Electrical access was obtained using both nystatin and amphotericin. A double-pulse protocol was used for the determination of IC50 values for inactivated state block. Nav1.7 and Nav1.5 expressing cells were voltage clamped at −100 mV and −110 mV, respectively. A depolarizing prepulse to −10 mV (Nav1.7) or −30 mV (Nav1.5) for 1000 ms followed by a 10 ms repolarization to −100 mV (Nav1.7) or −110 mV (Nav1.5) was given to generate fractional channel inactivation of 50%, followed by a 10 ms test pulse to −10 mV (Nav1.7) or −30 mV (Nav1.5) to measure peak current in control conditions and after compound addition. The following recording solutions were used (mM). External: 150 NaCl, 2 CaCl2, 5 KCl, 1 Mg Cl2, 10 HEPES, 12 Dextrose; internal: 120 CsF, 30 CsCl, 10 EGTA, 5 HEPES, 5 NaF, 2 MgCl2.
For all electrophysiology experiments, offline analysis was used to determine percent inhibition as a function of drug concentration. IC50 values were determined by fitting to the Hill equation.

Row | Structure (SMILES) | IC50
1 | CNCCNCCCCNc1cc(F)c(S(=O)(=O)Nc2ncc(Cl)s2)cc1Cl [Ex 16-49, 5-chloro-N-(5-chloro-1,3-thiazol-2-yl)-2-fluoro-4-[(4-{[2-(methylamino)ethyl]-amino}butyl)amino] benzene-sulfonamide] | 14 nM
2 | CNCCCNCCCCNc1cc(F)c(S(=O)(=O)Nc2nccs2)cc1Br [Ex 16-55, 5-bromo-2-fluoro-4-[(4-{[3-(methylamino)propyl]amino}butyl)amino]-N-1,3-thiazol-2-ylbenzenesulfonamide] | 18 nM
3 | O=S(=O)(Nc1ncns1)c1cc(Cl)c(NCCCCNCCCNCCF)cc1F [Ex 16-58, 5-chloro-2-fluoro-4-{[4-({3-[(2-fluoroethyl)amino]-propyl}amino)butyl]amino}-N-1,2,4-thiadiazol-5-yl-benzenesulfonamide] | 37 nM
4 | CC(C)(CN)NCCCCNc1cc(F)c(S(=O)(=O)Nc2ncc(F)s2)cc1Cl [Ex 16-61, 4-({4-[(2-amino-1,1-dimethylethyl)amino]butyl}amino)-5-chloro-2-fluoro-N-(5-fluoro-1,3-thiazol-2-yl)benzenesulfonamide] | 21 nM
5 | NC1(CNCCCCNc2cc(F)c(S(=O)(=O)Nc3ncc(F)s3)cc2Cl)CC1 [Ex 16-63, 4-[(4-{[(1-aminocyclopropyl)methyl]amino}butyl)amino]-5-chloro-2-fluoro-N-(5-fluoro-1,3-thiazol-2-yl)benzenesulfonamide] | 56 nM
6 | CN[C@H](C)CNCCCCNc1cc(F)c(S(=O)(=O)Nc2ncc(F)s2)cc1Cl [Ex 16-65, 5-chloro-2-fluoro-N-(5-fluoro-1,3-thiazol-2-yl)-4-[(4-{[(2R)-2-(methylamino)propyl]amino}butyl)amino] benzenesulfonamide] | 28 nM
7 | C[C@@H](CN)NCCCCNc1cc(F)c(S(=O)(=O)Nc2ncc(F)s2)cc1Cl [Ex 16-66, 4-[(4-{[(1S)-2-amino-1-methylethyl]amino}butyl)amino]-5-chloro-2-fluoro-N-(5-fluoro-1,3-thiazol-2-yl)benzenesulfonamide] | 16 nM
8 | C[C@@H](CN)NCCCCNc1cc(F)c(S(=O)(=O)Nc2ncns2)cc1Cl [Ex 16-67, 4-[(4-{[(1S)-2-amino-1-methylethyl]amino}butyl)amino]-5-chloro-2-fluoro-N-1,2,4-thiadiazol-5-ylbenzenesulfonamide] | 16 nM
9 | NC1(CNCCCCNc2cc(F)c(S(=O)(=O)Nc3ncc(F)s3)cc2Cl)CCC1 [Ex 16-69, 4-[(4-{[(1-aminocyclobutyl)methyl]amino}butyl)amino]-5-chloro-2-fluoro-N-(5-fluoro-1,3-thiazol-2-yl)benzenesulfonamide] | 18 nM
10 | O=S(=O)(Nc1ncc(F)s1)c1cc(Cl)c(NCCCCNC[C@H]2CCN2)cc1F [Ex 16-73, 4-[(4-{[(2R)-azetidin-2-ylmethyl]amino}butyl)amino]-5-chloro-2-fluoro-N-(5-fluoro-1,3-thiazol-2-yl)benzenesulfonamide] | 19 nM

Compounds with a lower IC50, results first:

Row | IC50 | Structure (SMILES)
11 | 12 nM | CNCCCNCCCCNc1cc(F)c(S(=O)(=O)Nc2ncc(F)s2)cc1Br [Ex 16-56, 5-bromo-2-fluoro-N-(5-fluoro-1,3-thiazol-2-yl)-4-[(4-{[3-(methylamino)-propyl]amino}butyl)amino]-benzenesulfonamide]
12 | 11 nM | CNCCNCCCCNc1cc(F)c(S(=O)(=O)Nc2nccs2)cc1Br [Ex 16-50, 5-bromo-2-fluoro-4-[(4-{[2-(methylamino)ethyl]amino}-butyl)amino]-N-1,3-thiazol-2-ylbenzenesulfonamide]
13 | 11 nM | C[C@H](CN)NCCCCNc1cc(F)c(S(=O)(=O)Nc2ncns2)cc1Cl [Ex 16-60, 4-[(4-{[(1R)-2-amino-1-methylethyl]amino}butyl)-amino]-5-chloro-2-fluoro-N-1,2,4-thiadiazol-5-yl-benzenesulfonamide]
14 | 11 nM | N[C@H]1CCC[C@@H]1NCCCCNc1cc(F)c(S(=O)(=O)Nc2nccs2)cc1Cl [Ex 16-72, 4-[(4-{[(1S,2S)-2-aminocyclopentyl]amino}butyl)amino]-5-chloro-2-fluoro-N-1,3-thiazol-2-ylbenzenesulfonamide]
